Here are results for one sequence from US7723289B2, “PIF tetrapeptides” (BioIncept, LLC, priority 2003, dated 2010).

This experiment relates to PBMC. Kind of experiment: PIF-1 effects on cytokine expression in patient and control PBMC (Table 7). It counts as cell-based, human. To be noted: for TH1/TH2 change in parentheses: PHA + PIF-115 + vs PHA + alone; for IL-10 / TH1/TH2 / TNFα: PHA +, PIF-115 +.

With MVRIKPGSANKPSDD [sPIF-1(15)], for the setting “control”, the “TH1/TH2 change in parentheses” value is given as −19%, the IL-10 is listed as 28.18 % of total PBMC in scatter gate, the TH1/TH2 is 0.55 and the TNFα is 15.46 % of total PBMC in scatter gate. For the setting “patient”, the “TH1/TH2 change in parentheses” value is given as “+32%”, the IL-10 is reported as 24.32 % of total PBMC in scatter gate, the TH1/TH2 is reported as 0.75 and the TNFα is 18.32 % of total PBMC in scatter gate.
